{"source": "patent US20220056154A1", "about": "“Bispecific Antibody Compositions and Methods for Treating COVID-19” (priority 2020, published 2022)", "origin": "cited, not measured here", "target": "hACE2 (Homo sapiens, UniProt Q9BYF1)", "sequence (Q9BYF1 18-805)": "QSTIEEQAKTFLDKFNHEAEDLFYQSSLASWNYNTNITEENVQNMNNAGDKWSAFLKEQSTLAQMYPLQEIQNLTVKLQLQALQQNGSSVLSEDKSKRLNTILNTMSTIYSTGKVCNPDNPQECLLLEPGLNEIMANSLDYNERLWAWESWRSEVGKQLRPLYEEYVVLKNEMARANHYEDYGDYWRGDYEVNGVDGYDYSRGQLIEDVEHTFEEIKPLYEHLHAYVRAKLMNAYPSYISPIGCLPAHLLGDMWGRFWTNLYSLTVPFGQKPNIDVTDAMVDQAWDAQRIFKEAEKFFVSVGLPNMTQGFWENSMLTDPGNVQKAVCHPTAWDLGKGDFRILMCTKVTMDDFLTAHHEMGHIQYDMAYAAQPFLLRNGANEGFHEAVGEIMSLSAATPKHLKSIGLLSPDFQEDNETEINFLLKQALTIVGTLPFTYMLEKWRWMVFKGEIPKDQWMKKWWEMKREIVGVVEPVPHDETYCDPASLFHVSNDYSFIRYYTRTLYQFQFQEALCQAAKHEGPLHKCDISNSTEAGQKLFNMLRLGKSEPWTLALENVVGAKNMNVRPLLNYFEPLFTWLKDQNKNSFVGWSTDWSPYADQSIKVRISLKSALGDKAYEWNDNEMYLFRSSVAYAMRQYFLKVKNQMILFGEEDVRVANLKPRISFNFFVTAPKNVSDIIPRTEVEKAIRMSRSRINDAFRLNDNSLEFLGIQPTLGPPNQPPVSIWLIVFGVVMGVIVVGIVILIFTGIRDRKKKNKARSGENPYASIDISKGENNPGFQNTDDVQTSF", "conditions": "10 μM lisinopril, 10 μM captopril, 10 μM enalaprilat, 100 μM benzyl succinate, 10 mM EDTA; 100 μM angiotensin II; 37° C., 2 hours"}
{"smiles": "O=C(O)CN(CCN(CC(=O)O)CC(=O)O)CC(=O)O", "note": "[EDTA]", "values": [{"measurement": "inhibition of hACE2 activity (angiotensin II cleavage)", "value": "inhibits hACE2 activity"}]}
{"smiles": "O=C(O)CC(Cc1ccccc1)C(=O)O", "note": "(centres unmarked) [benzyl succinate]", "values": [{"measurement": "inhibition of hACE2 activity (angiotensin II cleavage)", "value": "none of lisinopril, captopril, enalaprilat, and benzyl succinate (a carboxypeptidase A inhibitor) inhibits hACE2 activity"}]}
